Laboratory results from ChEMBL document CHEMBL4177694, “Discovery of the first low-shift positive allosteric modulators for the muscarinic M1 receptor” (Bioorg Med Chem Lett, 2017).
The source made the active and inactive calls. The rule behind the calls is not given here.

Experiments:
[1] = target: T1, Muscarinic acetylcholine receptor M1 (Homo sapiens, UniProt P11229); assay: (§1) Positive allosteric modulation of human wild type M1 receptor assessed as increase in acetylcholine-induced calcium flux by FLIPR assay; type: functional
T1 sequence (P11229 whole entry): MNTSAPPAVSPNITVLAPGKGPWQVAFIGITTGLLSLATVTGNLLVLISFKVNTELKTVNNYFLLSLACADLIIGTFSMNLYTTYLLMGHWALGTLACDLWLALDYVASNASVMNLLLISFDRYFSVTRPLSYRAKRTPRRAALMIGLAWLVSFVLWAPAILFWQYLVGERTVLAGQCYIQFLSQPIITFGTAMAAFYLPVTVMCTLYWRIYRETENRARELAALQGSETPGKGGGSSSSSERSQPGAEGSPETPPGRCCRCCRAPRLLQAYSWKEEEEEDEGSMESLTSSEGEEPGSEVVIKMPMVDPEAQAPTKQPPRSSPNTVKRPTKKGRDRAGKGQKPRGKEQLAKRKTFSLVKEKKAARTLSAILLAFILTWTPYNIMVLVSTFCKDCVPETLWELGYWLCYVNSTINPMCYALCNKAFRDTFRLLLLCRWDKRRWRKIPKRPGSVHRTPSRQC

[2] = target: T2, Muscarinic acetylcholine receptor M1 (Homo sapiens) (UniProt P11229); assay: Positive allosteric modulation of human wild type M1 receptor assessed as increase in acetylcholine-induced calcium flux by FLIPR assay relative to acetylcholine; type: functional
T2 sequence (whole entry): T1 sequence (P11229 whole entry)

[3] = Displacement of [3H]-Ro 15-1788 from rat brain synaptosomal membranes GABA receptor after 90 mins
[4] = target: T2, Muscarinic acetylcholine receptor M1 (Homo sapiens); assay: as §1; type: functional

Structure (SMILES)	EC50 [1] [nM]	Emax [2] [%]	EC50 [3] [µM]	Activity [4]
CC(C)[C@H]1N=C(c2ccccc2F)c2cc(Cl)ccc2NC1=S	420	119	–	–
C[C@@H]1N=C(c2ccccc2)c2ccccc2NC1=S	–	–	68	–
S=C1CN=C(c2ccccc2)c2cc(Br)ccc2N1	962	92	–	–
Fc1ccccc1C1=N[C@@H](C2CC2)C(=S)Nc2ccc(Cl)cc21	165	79	–	–
CC(C)(O)C1N=C(c2ccccc2)c2cc(Cl)ccc2NC1=S (racemic)	1850	113	–	–
S=C1CN=C(c2ccccc2)c2ccccc2N1	> 10000	–	–	–
Fc1ccccc1C1=N[C@H](c2ccccc2)C(=S)Nc2ccc(Cl)cc21	> 10000	–	–	–
CC(C)[C@@H]1N=C(N2CCCCC2)c2cc(Cl)ccc2NC1=S	> 10000	–	–	–
CC[C@@H]1N=C(c2ccccc2)c2cc(Cl)ccc2NC1=S	187	66	–	–
CC(C)[C@@H]1N=C(c2ccccn2)c2cc(Cl)ccc2NC1=S	289	103	–	–
CC(C)[C@@H]1N=C(c2ccccc2)c2cc(Cl)ccc2NC1=O	777	90	57	–
CSc1ccc2c(c1)C(c1ccccc1)=NCC(=S)N2	870	71	–	–
Fc1ccccc1C1=NCC(=S)Nc2ccc(Cl)cc21	317	95	–	–
CC(C)C[C@@H]1N=C(c2ccccc2Cl)c2cc(Cl)ccc2NC1=S	> 10000	–	–	–
CC1N=C(c2ccccc2)c2cc(C#N)ccc2NC1=S (stereo not drawn)	> 10000	47	–	–
CC(C)[C@@H]1N=C(c2ccccc2)c2cc(Cl)ccc2N=C1N	–	–	–	inactive
CC(C)[C@@H]1N=C(c2ccccc2)c2cc(-c3ccccc3)ccc2NC1=S	1470	108	–	–
CC(C)C1C(=O)N(c2ccccc2)c2cc(Cl)ccc2NC1=S (stereo not drawn)	267	93	–	–
S=C1Nc2ccc(Cl)cc2C(c2ccccc2)=N[C@H]1CC1CC1	251	108	–	–
C[C@@H]1N=C(c2ccccc2)c2cc(Cl)ccc2NC1=S	103	67	–	–
Fc1ccccc1C1=NCC(=S)Nc2ccc(I)cc21	2150	63	–	–

Structure (SMILES)	EC50 [1] [nM]	Emax [2] [%]	EC50 [3] [µM]	Activity [4]
FC(F)(F)c1ccc2c(c1)C(c1ccccc1)=NCC(=S)N2	516	92	–	–
O=[N+]([O-])c1ccc2c(c1)C(c1ccccc1)=NCC(=S)N2	4480	40	–	–
CC(C)[C@@H]1N=C(c2ccccc2)c2cc(OC(F)(F)F)ccc2NC1=S	232	127	–	–
CC(C)[C@@H]1N=C(c2cccc(Cl)c2)c2cc(Cl)ccc2NC1=S	172	112	–	–
CC(C)[C@@H]1N=C(C2CCCCC2)c2cc(Cl)ccc2NC1=S	414	75	–	–
Cc1ccc2c(c1)C(c1ccccc1)=NC(C(C)C)C(=S)N2 (stereo not drawn)	62	129	–	–
Cc1ccc2c(c1)C(c1ccccc1)=NCC(=S)N2	3680	91	–	–
CC(C)[C@@H]1N=C(c2ccc(C(F)(F)F)cc2)c2cc(Cl)ccc2NC1=S	> 10000	–	–	–
S=C1CC(c2ccccc2)=Nc2cc(Cl)ccc2N1	> 10000	–	–	–
CC(C)C1C(=S)Nc2ccc(Cl)cc2C(c2ccccc2)=[N+]1[O-] (stereo not drawn)	349	112	–	–
CC(C)[C@@H]1N=C(c2ccccc2)c2ccc(Cl)cc2NC1=S	399	117	–	–
CC(C)[C@H]1N=C(c2ccccc2)c2cc(Cl)ccc2NC1=S	521	86	267	–
Fc1ccccc1C1=N[C@@H](c2ccccc2)C(=S)Nc2ccc(Cl)cc21	1470	75	–	–
CCC1N=C(c2ccccc2)c2cc(N)ccc2NC1=S (stereo not drawn)	> 10000	–	–	–
CCC[C@@H]1N=C(c2ccccc2)c2cc(Cl)ccc2NC1=S	238	129	–	–
CC(C)C[C@@H]1N=C(c2ccccc2)c2cc(Cl)ccc2NC1=S	317	107	–	–
CC(=O)c1ccc2c(c1)C(c1ccccc1)=NC(C)C(=S)N2 (stereo not drawn)	> 10000	–	–	–
CN1C(=S)CN=C(c2ccccc2)c2cc(Cl)ccc21 [SULAZEPAM]	> 10000	–	–	–
CNC1=Nc2ccc(Cl)cc2C(c2ccccc2)=N[C@H]1C(C)C	–	–	–	inactive
CCC[C@@]1(C)N=C(c2ccccc2)c2cc(Cl)ccc2NC1=S	> 10000	–	–	–
CC(C)=C1N=C(c2ccccc2)c2cc(Cl)ccc2NC1=S	> 10000	–	–	–

Structure (SMILES)	EC50 [1] [nM]	Emax [2] [%]	EC50 [3] [µM]	Activity [4]
S=C1Cc2ccccc2-c2cc(Cl)ccc2N1	> 10000	–	–	–
Fc1ccccc1C1=NCc2cnnn2-c2ccc(Cl)cc21	–	–	–	inactive
CSC1=Nc2ccc(Cl)cc2C(c2ccccc2)=N[C@H]1C(C)C	–	–	–	inactive
CCC1CN(c2ccccc2)c2cc(Cl)ccc2NC1=S (stereo not drawn)	50	76	–	–
FC(F)(F)C[C@@H]1N=C(c2ccccc2)c2cc(Cl)ccc2NC1=S	311	74	–	–
SC1=Nc2ccc(Cl)cc2C(c2ccccc2)=NC1	180 to 857	82 to 92	–	–
CCOC(=O)C1N=C(c2ccccc2)c2cc(Cl)ccc2NC1=S (racemic)	> 10000	–	–	–
COC(C)C1N=C(c2ccccc2)c2cc(Cl)ccc2NC1=S (racemic)	354	98	–	–
COc1ccc2c(c1)C(c1ccccc1)=N[C@@H](C(C)C)C(=S)N2	559	105	–	–
CC1N=C(c2ccccc2)c2ccccc2NC1=S (racemic)	552	88	0.061	–
CCCC1=N[C@@H](C(C)C)C(=S)Nc2ccc(Cl)cc21	> 10000	–	–	–
S=C1COC(c2ccccc2)c2cc(Cl)ccc2N1 (stereo not drawn)	> 10000	–	–	–
CC(C)[C@@H]1N=C(c2cccnc2)c2cc(Cl)ccc2NC1=S	275	112	–	–
Fc1ccccc1C1=CCC(=S)Nc2ccc(Cl)cc21	317	95	–	–
CCC[C@]1(C)N=C(c2ccccc2)c2cc(Cl)ccc2NC1=S	104	–	–	–
CC(=O)OC1C=C(c2ccccc2F)c2cc(Cl)ccc2NC1=S (stereo not drawn)	649	92	–	–
CCOC1N=C(c2ccccc2)c2cc(Cl)ccc2NC1=S (racemic)	> 10000	–	–	–
CC(C)[C@@H]1N=C(c2ccccc2)c2cc(Cl)ccc2N(C)C1=S	> 10000	–	73	–
Fc1ccccc1C1=NCC(=S)Nc2ccccc21	> 10000	–	–	–
S=C1Nc2ccc(Cl)cc2C(c2ccccc2)=NC1n1ccnc1 (racemic)	> 10000	–	–	–
